Measured values from paper PMC12508156, “Non-canonical dihydrolipoyl transacetylase promotes chemotherapy resistance via mitochondrial tetrahydrofolate signaling” (Nature Communications, 2025).
Several values for one entry are separate records, joined by “and”; a condition that tells them apart may be missing. Equal values may be shown once.

How the values were obtained:
[1] = biological target: T1, pyruvate dehydrogenase complex (PDC) (Homo sapiens, UniProt P08559+P09622+P10515); experiment: PDC activity (PDH enzyme activity microplate assay); assay type: cell-based; settings: cisplatin 24 h, NADH production from PDH reaction, normalised, n=1-3: biological replicates, listed as cis
T1 construct: endogenous in cells; host or cells: A549cisR and KB-3-1cisR cells (lysates; Abcam PDH Enzyme Activity Microplate Assay Kit)
T1 sequence (P08559 30-390): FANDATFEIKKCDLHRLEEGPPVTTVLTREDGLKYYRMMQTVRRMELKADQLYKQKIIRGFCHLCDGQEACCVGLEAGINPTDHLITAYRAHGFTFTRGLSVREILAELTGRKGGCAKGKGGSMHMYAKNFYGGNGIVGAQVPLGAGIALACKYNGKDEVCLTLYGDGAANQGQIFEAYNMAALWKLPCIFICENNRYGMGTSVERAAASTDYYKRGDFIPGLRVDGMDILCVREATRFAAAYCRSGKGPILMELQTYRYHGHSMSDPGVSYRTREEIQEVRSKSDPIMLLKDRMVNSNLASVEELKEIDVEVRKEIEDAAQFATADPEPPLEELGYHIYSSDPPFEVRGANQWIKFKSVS
T1 sequence (P10515 87-647): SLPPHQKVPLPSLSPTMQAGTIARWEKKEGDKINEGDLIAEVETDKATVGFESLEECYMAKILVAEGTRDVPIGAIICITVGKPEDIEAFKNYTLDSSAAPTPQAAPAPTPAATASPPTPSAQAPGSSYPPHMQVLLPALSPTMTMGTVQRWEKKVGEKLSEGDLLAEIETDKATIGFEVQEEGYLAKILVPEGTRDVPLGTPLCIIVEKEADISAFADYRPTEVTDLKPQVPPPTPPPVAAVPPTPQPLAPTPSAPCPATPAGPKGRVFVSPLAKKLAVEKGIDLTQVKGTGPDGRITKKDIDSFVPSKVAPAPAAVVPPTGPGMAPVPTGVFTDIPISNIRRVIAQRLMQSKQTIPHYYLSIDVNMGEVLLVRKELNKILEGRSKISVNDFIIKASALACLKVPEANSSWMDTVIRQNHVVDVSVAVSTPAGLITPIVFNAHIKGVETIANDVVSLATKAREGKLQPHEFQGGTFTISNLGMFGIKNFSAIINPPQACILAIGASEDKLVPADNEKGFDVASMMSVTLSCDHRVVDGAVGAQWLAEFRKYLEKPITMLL
T1 sequence (P09622 36-509): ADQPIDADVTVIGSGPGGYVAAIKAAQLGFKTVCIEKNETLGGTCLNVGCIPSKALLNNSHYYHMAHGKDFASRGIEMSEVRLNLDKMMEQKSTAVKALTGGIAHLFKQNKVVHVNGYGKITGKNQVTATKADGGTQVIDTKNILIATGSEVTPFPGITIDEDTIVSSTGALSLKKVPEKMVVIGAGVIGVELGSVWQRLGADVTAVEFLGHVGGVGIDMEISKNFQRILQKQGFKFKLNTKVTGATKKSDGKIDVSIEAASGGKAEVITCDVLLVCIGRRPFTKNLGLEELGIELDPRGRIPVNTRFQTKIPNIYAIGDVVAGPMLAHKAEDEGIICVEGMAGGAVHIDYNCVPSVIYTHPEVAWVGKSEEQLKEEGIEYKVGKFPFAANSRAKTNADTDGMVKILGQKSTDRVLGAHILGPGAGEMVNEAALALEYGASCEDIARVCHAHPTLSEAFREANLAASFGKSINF
Procedure: Cellular metabolic states were examined through various assays. […] Intracellular H2O2, NADPH, acetyl-CoA, and GSH/GSSG ratios were quantified using commercial assay kits as listed in the Reagents. Intracellular ATP levels were determined utilizing the ATP bioluminescent somatic cell assay and normalized to the total protein concentrations. The de novo synthesized RNA and proteins were assessed in cancer cells using commercial assays following the manufacturer’s protocols. In brief, O-propargyl-puromycin or uridine analog, 5-EU, was applied to stop translation or modify RNA. Polypeptides or modified RNA were measured using fluorescent azide with Ex/Em at 494/521 nm. PDC activity was determined by measuring the reduction of NAD+ to NADH during the conversion of pyruvate into acetyl-CoA. To estimate the activity of the pyruvate dehydrogenase complex (PDC), PDH (E1 subunit) activity was measured using the Pyruvate Dehydrogenase Enzyme Activity Microplate Assay Kit (Abcam) according to the manufacturer’s instructions. Briefly, A549^cisR and KB-3-1^cisR cells with or without DLAT knockdown were harvested, washed with PBS, and lysed using the supplied detergent solution. After quantifying protein concentration, lysates were diluted to 10 mg/ml in 1 ⅹ buffer, and 200 μl of assay solution was added to each well, and absorbance at 450 nm was measured kinetically every 30 s for 30 min at room temperature using a microplate reader.

[2] = test system: lung cancer patient-derived xenograft tumors; experiment: IHC of lung cancer PDX tumors (Ac-K44 MTHFD2, MT-CO2, DLAT); assay type: in vivo, athymic nu/nu mice; design: key: IHC intensity score 0 to 3+; settings: lung cancer PDX tumors (Figure 8M)
Description: Formalin-fixed and paraffin-embedded tumor tissue specimens from HNSCC and NSCLC patients were obtained from the […] Cancer Tissue and Pathology Shared Resources. The Institutional Review Board (IRB) of Emory University approved using human specimens (IRB00003208 - HNSCC, IRB00098377 - NSCLC). Clinical samples were collected with informed consent according to the Health Insurance Portability and Accountability Act. Patients' clinical information was obtained through the […] Technology Applications Shared Resource. Tumors from HNSCC or NSCLC patients who received chemotherapy-containing regimens were used. Immunohistochemistry (IHC) staining of DLAT, acetyl-[…] MTHFD2, MT-CO2, and Ki-67 was performed based on the established protocol. Antigen retrieval was conducted in Tris-EDTA (pH 9.0) for acetyl-[…] MTHFD2 and MT-CO2 and sodium citrate (pH 6.0) for the remaining antigens. […] Assessment of positive DLAT, MT-CO2, and acetyl-[…] MTHFD2 staining intensity within tumor cells was performed using a scoring system ranging from 0 to 3+ based on IHC signal intensity. Mice were subcutaneously injected into the flank with 1 × 10^6 KB-3-1^cisR cells with or without DLAT knockdown. […] Tumors were collected at the experimental endpoint, and tumor proliferation was assessed using Ki-67 IHC staining. The localization, penetration, and efficacy of DMp39 were monitored by assessing the acetyl-[…] levels in tumors and fluorescence imaging analysis using an IVIS imaging system. Drug-induced organ toxicities, including splenomegaly, liver damage, and kidney injury, were monitored by assessing spleen index, alanine transaminase activity, and cystatin C levels in plasma.

Question: Which PDC activity ([1]; A549cisR pLKO.1) does the source give for `N.N.[Cl][Pt][Cl]` [cisplatin] here?
Answer: 0.9844 and 1.125 and 1.078

Question: And the PDC activity ([1]; A549cisR shDLAT)?
Answer: 0.375 and 0.4219

Question: What about the PDC activity ([1]; KB-3-1cisR pLKO.1) of the same compound?
Answer: 1.12 and 1.073

Question: What about the PDC activity ([1]; KB-3-1cisR shDLAT) of the same compound?
Answer: 0.06728 and 0.05145 and 0.04749

Question: And the “Ac-K44 (IHC score)” value ([2]; n=1)?
Answer: 2

Question: And the “DLAT (IHC score)” value ([2]; n=1)?
Answer: 1

Question: What about the “MT-CO2 (IHC score)” value ([2]; n=1) of the same compound?
Answer: 3

Question: And the “Ac-K44 (IHC score)” value ([2]; n=2)?
Answer: 2

Question: And the “DLAT (IHC score)” value ([2]; n=2)?
Answer: 2

Question: And the “MT-CO2 (IHC score)” value ([2]; n=2)?
Answer: 3

Question: And the “Ac-K44 (IHC score)” value ([2]; n=3)?
Answer: 3

Question: And the “DLAT (IHC score)” value ([2]; n=3)?
Answer: 3

Question: And the “MT-CO2 (IHC score)” value ([2]; n=3)?
Answer: 3

Question: And the “Ac-K44 (IHC score)” value ([2]; n=4)?
Answer: 3

Question: And the “DLAT (IHC score)” value ([2]; n=4)?
Answer: 2

Question: What about the “MT-CO2 (IHC score)” value ([2]; n=4) of the same compound?
Answer: 2

Question: What about the “Ac-K44 (IHC score)” value ([2]; n=5) of the same compound?
Answer: 2

Question: What about the “DLAT (IHC score)” value ([2]; n=5) of the same compound?
Answer: 2

Question: What about the “MT-CO2 (IHC score)” value ([2]; n=5) of the same compound?
Answer: 3
